From publication PMC10511244 (Nature, 2022)

Tested on: AS4.3, AS8.2, AS8.4, and AU2.1 TCRs
Assay: CD69 upregulation with peptide-pulsed K562 cells expressing HLA-B*27:05
Assay type: cell-based, human
Conditions: SKW-3 T cells expressing AS4.3, AS8.2, AS8.4, and AU2.1 TCRs; n = 3 biological replicates

| Sequence | T cell response (CD69 upregulation) when peptide presented by HLA-B*27:05-expressing K562 cells |
| --- | --- |
| GQVMVVAPR [RNASEH2B^self] | robust T cell responses |
| LRQMLQAPH [MPP4^self] | robust T cell responses |
